pKd: −log10 of the molar value. Converted amounts (≈) assume the structure as drawn. The source made the active and inactive calls. The rule behind the calls is not given here.
How the values were obtained:
[1] = Clearance in mouse microsomes; assay type: ADME, Microsome
Serratia marcescens = assay: Antibacterial activity against intrinsically colistin resistant Serratia marcescens ATCC 13880 assessed as inhibition of bacterial growth incubated for 18 hrs; assay type: functional; conditions: read-out: MIC100
Lipopolysaccharide (LPS) = assay: Binding affinity to Escherichia coli O55:B5 LPS assessed as dissociation constant by ITC analysis; assay type: subcellular
Escherichia coli [2] = assay: Antibacterial activity against Escherichia coli ATCC 25922 assessed as inhibition of bacterial growth incubated for 18 hrs in presence of 25 mM bicarbonate; assay type: functional, organism-based
[3] = Lipophilicity, logD of compound at pH 7.4; assay type: physicochemical; conditions: buffer
[4] = Hemolytic activity in human red blood cells at 400 ug/ml incubated for 45 mins by spectrophotometric analysis relative to control; assay type: toxicity, cell-based, Erythrocyte; conditions: red blood cells (erythrocytes), at 400 µg/mL, read-out: Activity
Acinetobacter baumannii = assay: Antibacterial activity against wild-type Acinetobacter baumannii ATCC 19606 assessed as inhibition of bacterial growth incubated for 20 hrs; assay type: functional; conditions: read-out: MIC100
[5] = Drug uptake in Escherichia coli ATCC 25922 whole cells at 10 uM incubated for 10 mins by LC-MS/MS analysis; assay type: ADME
Escherichia coli [6] = assay: Antibacterial activity against Escherichia coli ATCC 25922 harboring tolC knock-out assessed as inhibition of bacterial growth incubated for 18 hrs; assay type: functional; conditions: read-out: MIC100
[7] = Clearance in human microsomes; assay type: ADME, Microsome
Escherichia coli [8] = assay: Antibacterial activity against Escherichia coli ATCC 25922 assessed as inhibition of bacterial growth incubated for 18 hrs in presence of 2 mM CaCl2; assay type: functional, organism-based
Escherichia coli [9] = assay: Antibacterial activity against Escherichia coli ATCC 25922 harboring hldE knock-out assessed as inhibition of bacterial growth incubated for 18 hrs; assay type: functional; conditions: read-out: MIC100
Providencia stuartii = assay: Antibacterial activity against Providencia stuartii ATCC 25826 assessed as inhibition of bacterial growth incubated for 18 hrs; assay type: functional; conditions: read-out: MIC100
Escherichia coli [10] = assay: Antibacterial activity against Escherichia coli ATCC 25922 assessed as inhibition of bacterial growth incubated for 18 hrs in presence of 2 mM MgCl2; assay type: functional, organism-based
Escherichia coli [11] = assay: Antibacterial activity against colistin resistant Escherichia coli NCTC 13846 harboring mcr-1 gene assessed as inhibition of bacterial growth incubated for 18 hrs; assay type: functional; conditions: read-out: MIC100
Morganella morganii = assay: Antibacterial activity against Morganella morganii ATCC 25830 assessed as inhibition of bacterial growth incubated for 18 hrs; assay type: functional; conditions: read-out: MIC100
[12] = Drug uptake in Proteus mirabilis ATCC 7002 whole cells at 10 uM incubated for 10 mins by LC-MS/MS analysis; assay type: ADME
[13] = Cytotoxicity against human HepG2 cells incubated for 40 hrs by celltiter-glo luminescent cell viability assay; assay type: toxicity, cell-based
Escherichia coli [14] = assay: Antibacterial activity against Escherichia coli ATCC BAA-2469 expressing NDM-1 assessed as inhibition of bacterial growth incubated for 18 hrs; assay type: functional; conditions: read-out: MIC100
[15] = Binding affinity to gram negative bacterial lipid II assessed as dissociation constant by ITC analysis; parameters: species or system Bacteria
[16] = Drug localization in cytoplasm of Escherichia coli ATCC 25922 at 10 uM incubated for 10 mins by LC-MS/MS analysis; assay type: ADME, subcellular
Proteus mirabilis = assay: Antibacterial activity against Proteus mirabilis ATCC 7002 assessed as inhibition of bacterial growth incubated for 18 hrs; assay type: functional; conditions: read-out: MIC100
Klebsiella pneumoniae [17] = assay: Antibacterial activity against Klebsiella pneumoniae ATCC 13883 assessed as inhibition of bacterial growth incubated for 18 hrs in presence of 2 mM MgCl2; assay type: functional, organism-based
[18] = Aqueous solubility of compound at pH 7.4; assay type: physicochemical
Klebsiella pneumoniae [19] = assay: Antibacterial activity against Klebsiella pneumoniae ATCC BAA-2470 expressing NDM-1 assessed as inhibition of bacterial growth incubated for 18 hrs; assay type: functional; conditions: read-out: MIC100
Klebsiella pneumoniae [20] = assay: Antibacterial activity against Klebsiella pneumoniae ATCC 13883 assessed as inhibition of bacterial growth incubated for 18 hrs in presence of 2 mM CaCl2; assay type: functional, organism-based
Cell membrane = assay: Induction of membrane permeabilization in Klebsiella pneumoniae ATCC 13883 at 64 ug/ml measured after 30 mins by Sytox Green labelling based microscopic analysis; assay type: cell membranes; conditions: dose 64.0 µg/ml
Escherichia coli [21] = assay: Antibacterial activity against wild-type Escherichia coli ATCC 25922 assessed as inhibition of bacterial growth incubated for 18 hrs; assay type: functional; conditions: read-out: MIC100

Compound `CC[C@H](C)[C@@H](NC(=O)[C@@H](NC(=O)[C@H](CCC(=O)O)NC(=O)[C@H](Cc1ccccc1)NC(=O)[C@@H](CCN)NC(=O)[C@H](CCN)NC(=O)[C@H](CO)NC(=O)[C@@H](Cc1c[nH]c2ccccc12)NC(=O)[C@@H](CO)NC(=O)CNC(=O)[C@@H](CCN)NC(=O)[C@H](N)C(C)C)C(C)C)C(=O)N[C@@H](C)C(=O)O` has a microsomal CLint [1] of 25 µL/min/mg, an MIC (Serratia marcescens) of 32 µg/mL (≈ 22.9 µM) and a pKd (Lipopolysaccharide (LPS)) of 5.24. For the same compound, the Activity (Escherichia coli [2]) was “Active”, the logD [3] was 1.09 and the hemolysis at 0.75 h, 400 ug/ml [4] was 3.6%. The MIC (Acinetobacter baumannii) was 32 µg/mL (≈ 22.9 µM), the Drug uptake [5] was ~ 60 ng and the MIC (Escherichia coli [6]) was greater than 32 µg/mL. The microsomal CLint [7] was 22 µL/min/mg, the Activity (Escherichia coli [8]) was “Active” and the MIC (Escherichia coli [9]) was 8 µg/mL (≈ 5.74 µM). For the same compound, the MIC (Providencia stuartii) was greater than 32 µg/mL, the Activity (Escherichia coli [10]) was “Active” and the MIC (Escherichia coli [11]) was 32 µg/mL (≈ 22.9 µM). The MIC (Morganella morganii) was greater than 32 µg/mL, the Drug uptake [12] was ~ 60 ng and the IC50 at 40 h [13] was 76 µg/mL (≈ 54.5 µM). The MIC (Escherichia coli [14]) was greater than 32 µg/mL, the pKd [15] was 6.22 and the Drug uptake [16] was “Active”. The MIC (Proteus mirabilis) was greater than 64 µg/mL, the Activity (Klebsiella pneumoniae [17]) was “Active” and the solubility [18] was greater than 1000 µg/mL. For the same compound, the MIC (Klebsiella pneumoniae [19]) was 32 µg/mL (≈ 22.9 µM), the Activity (Klebsiella pneumoniae [20]) was “Active” and the Activity (Cell membrane) was “inactive”. The MIC (Escherichia coli [21]) was 32 µg/mL (≈ 22.9 µM).

From ChEMBL document CHEMBL5518181, “Studies of antibacterial activity (in vitro and in vivo) and mode of action for des-acyl tridecaptins (DATs)” (Eur J Med Chem, 2024)
